26 compounds from patent publication US20050209278A1, “Piperidinyl- and piperazinyl-sulfonylmethyl hydroxamic acids and their use as protease inhibitors” (priority 2002, published 2005) can be followed below.

One may read the Ki as a dissociation constant, usually derived from enzyme kinetics or from competition with a known ligand.

One assay has as its target T1, MMP-9 (Homo sapiens, UniProt P14780).
T1 construct: made in house; host or cells: MMP-9-transfected HT1080 cells (spent media)
The assay is described as follows: In vitro MMP inhibition, Ki determination (fluorogenic substrate II). Type of assay: biochemical. How it is done: Several hydroxamic acids and salts thereof were analyzed in in vitro assays to determine their ability to inhibit the MMP cleavage of peptide substrates. […] and IC50 constants were calculated from the assayed hydroxamic acid-MMP interactions.
Human recombinant MMP-1, MMP-2, MMP-9, MMP-13, and MMP-14 were used in this assay. All enzymes were prepared in Assignee's laboratories following usual laboratory procedures. Protocols for the preparation and use of these enzymes are available in the scientific literature. See, e.g., Enzyme Nomenclature (Academic Press, San Diego, Calif., 1992) (and the citations therein). See also, Freije et al., “Molecular cloning and expression of collagenase-3, a novel human matrix metalloproteinase produced by breast carcinomas,” J Biol. Chem., 269(24), 16766-16773 (1994).
The MMP-9 proenzyme was purified by gelatin Sepharose chromatography from spent media of MMP-9-transfected HT1080 cells provided by Dr. Howard Welgus of Washington University (St. Louis, Mo.).
All MMPs were activated using 4-aminophenylmercuric acetate (“APMA”, Sigma Chemical, St. Louis, Mo.) or trypsin. MMP-9 also was activated using human recombinant MMP-3 (purified in Assignee's laboratory following standard cloning and purification techniques).
Two fluorogenic, methoxycoumarin-containing polypeptide substrates were used in the MMP inhibition assays: [drawing 427] Here, “Dpa” is 3-(2,4-dinitrophenyl)-L-2,3-diaminopropionyl group, and “MCA” is 7-methoxycoumarin-4-yl acetyl. Substrate (I) was purchased from Baychem (Redwood City, Calif.), and substrate II was prepared Assignee's laboratory. Substrate I was used in the IC50 determination assays, while substrate II was used in the Ki determination assays. In the absence of MMP inhibitory activity, either substrate is cleaved at the Gly-Leu peptide bond. This cleavage separates the highly fluorogenic peptide from the 2,4-dinitrophenyl quencher, thus resulting in increase of fluorescent intensity.
The stock solutions of the assayed hydroxamic acids (or salts thereof) were prepared in 1% dimethyl sulfoxide (DMSO). These stock solutions were diluted in Buffer A (100 mM Tris-HCl, 100 mM NaCl, 10 mM CaCl2, 0.05% polyoxyethylene 23 lauryl ether, pH 7.5) to obtain solutions with different hydroxamic acid concentrations, i.e., assay solutions with different concentrations of the assayed MMP inhibitory compound. The experiment controls contained the same amount of Buffer A/DMSO as the assayed sample, but contained no hydroxamic acid (or salt thereof).
The assays from which the Ki determinations were made were performed as follows. The assayed hydroxamic acid samples were incubated in separate wells of untreated white polystyrene plates (Nunc Nalgene International, Rochester, N.Y.), and analyzed on a Tecan SpectraFlour Plus plate reader. The excitation wavelength was 330 nm, and the emission wavelength—420 nm. All samples (assayed hydroxamic acids and controls) were incubated in separate plate wells at room temperature for 1 hr in the presence of 4 μM of MMP substrate (II). In the absence of MMP inhibitory activity, substrate II was cleaved at the Gly-Leu bond resulting in an increase of relative fluorescence. Inhibition was observed as a reduced rate of this increase in relative fluorescence. The various hydroxamic acids were analyzed using a single low enzyme concentration with a single substrate concentration fixed at or below the Km. This protocol is a modification of method by Knight et al., FEBS Lett., 296(3), 263-266 (1992). Apparent inhibitory constants were determined by non-linear regression of reaction velocity as a function of inhibitor and enzyme concentration using Morrison's equation, as described by Kuzmic, Anal. Biochem. 286, 45-50 (2000). Modifications were made in the non-linear regression method to allow a common control reaction rate and effective enzyme concentration to be shared between all dose-response relationships on a given assay plate. […]

The target of another assay is T2, MMP-2 (Homo sapiens, UniProt P08253).
T2 construct: made in house; host or cells: MMP-2-transfected p2AHT2 cells
T2 sequence (P08253 110-660): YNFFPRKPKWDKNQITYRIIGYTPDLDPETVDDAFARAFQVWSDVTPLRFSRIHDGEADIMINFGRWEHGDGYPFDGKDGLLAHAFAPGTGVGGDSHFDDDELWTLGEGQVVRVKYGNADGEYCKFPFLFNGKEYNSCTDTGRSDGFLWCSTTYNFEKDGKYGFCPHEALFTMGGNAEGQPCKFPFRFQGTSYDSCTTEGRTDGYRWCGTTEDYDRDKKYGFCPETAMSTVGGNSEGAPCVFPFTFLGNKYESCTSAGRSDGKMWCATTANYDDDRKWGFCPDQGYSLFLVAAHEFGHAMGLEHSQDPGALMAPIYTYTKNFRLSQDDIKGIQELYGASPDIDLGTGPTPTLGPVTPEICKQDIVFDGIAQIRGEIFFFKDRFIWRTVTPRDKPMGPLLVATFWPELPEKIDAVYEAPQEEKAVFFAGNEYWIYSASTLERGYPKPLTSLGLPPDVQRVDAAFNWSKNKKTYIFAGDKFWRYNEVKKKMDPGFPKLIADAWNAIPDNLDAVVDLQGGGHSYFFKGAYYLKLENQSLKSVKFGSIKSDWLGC
Described as above. Type of assay: biochemical.

Setting [1] is: human recombinant enzyme, 4 μM substrate II, room temperature, 1 hr.
Setting [2] is: human recombinant enzyme, 4 μM substrate II, room temperature, 1 hr, read-out: MMP-2 Ki.
[3] abbreviates: value not in parenthesis, read-out: MMP-2 Ki.

Counter-ions that a name gives are not always drawn. Like-named read-outs stand apart in the source and are kept apart here.

T1 sequence (P14780 107-707 limits assumed): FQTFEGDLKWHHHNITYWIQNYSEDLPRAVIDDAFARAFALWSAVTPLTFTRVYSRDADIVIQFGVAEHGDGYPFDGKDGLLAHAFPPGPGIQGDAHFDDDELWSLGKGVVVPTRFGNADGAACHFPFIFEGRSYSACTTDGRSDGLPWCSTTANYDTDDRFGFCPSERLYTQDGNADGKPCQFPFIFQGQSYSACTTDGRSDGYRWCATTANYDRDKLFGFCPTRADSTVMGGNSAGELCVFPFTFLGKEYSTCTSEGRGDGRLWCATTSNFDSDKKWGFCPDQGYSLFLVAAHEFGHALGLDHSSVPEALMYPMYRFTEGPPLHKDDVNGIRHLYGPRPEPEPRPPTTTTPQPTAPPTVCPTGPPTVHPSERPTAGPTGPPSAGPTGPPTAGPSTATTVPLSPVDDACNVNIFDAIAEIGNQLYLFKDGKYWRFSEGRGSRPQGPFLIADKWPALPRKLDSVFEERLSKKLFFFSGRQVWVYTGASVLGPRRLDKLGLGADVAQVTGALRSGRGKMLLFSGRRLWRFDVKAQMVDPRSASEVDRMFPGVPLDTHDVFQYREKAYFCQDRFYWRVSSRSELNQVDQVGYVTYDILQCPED

Consider `O=C(NO)C1(S(=O)(=O)N2CCC(c3ccc(CCC(F)(F)C(F)(F)F)cc3)CC2)CCOCC1` [Example 18, N-hydroxy-4-({4-[4-(3,3,4,4,4-pentafluorobutyl)phenyl]piperidin-1-yl}sulfonyl)tetrahydro-2H-pyran-4-carboxamide], for which the Ki came out at 0.398 nM at MMP-9 (setting [1]) and 0.565 nM on MMP-2 (setting [2]).

Turning to `CCCCCc1ccc(N2CCN(S(=O)(=O)C3(C(=O)NO)CCN(c4ccc(C)cc4)CC3)CC2)cc1` [Example 147], the figures for the Ki at MMP-9 (value not in parenthesis) and on MMP-2 (setting [3]) were 13.7 nM and 20.5 nM, respectively.

On to `CCCCOc1ccc(N2CCN(S(=O)(=O)C3(C(=O)NO)CCN(C(=O)OCCOC)CC3)CC2)cc1` [Example 141], for which the Ki at MMP-9 (value not in parenthesis) is 5.33 nM; at MMP-2 (setting [3]), 0.266 nM.

With `O=C(NO)C1(S(=O)(=O)N2CCN(c3ccc(OCC4CC4)c(F)c3)CC2)CCN(C2CC2)CC1` [Example 10, 1-cyclopropyl-4-[[4-[4-(cyclopropylmethoxy)-3-fluorophenyl]-1-piperazinyl]sulfonyl]-N-hydroxy-4-piperidinecarboxamide, dihydrochloride], the Ki came out at 0.97 nM at MMP-9 (setting [1]) and 0.52 nM at MMP-2 (setting [2]).

Regarding `CCCCOc1ccc(N2CCN(S(=O)(=O)C3(C(=O)NO)CCOCC3)CC2)cc1` [Example 145], the Ki on MMP-9 (value not in parenthesis) stood at 1.18 nM; at MMP-2 (setting [3]) it was 0.695 nM.

With `O=C(NO)C1(S(=O)(=O)N2CCN(c3ccc(OCC(F)(F)F)cc3)CC2)CCOCC1` [Example 2, N-hydroxy-4-({4-[4-(2,2,2-trifluoroethoxy)phenyl]piperazin-1-yl}sulfonyl)tetrahydro-2H-pyran-4-carboxamide Hydrochloride], the Ki on MMP-9 (setting [1]) worked out at 1.28 nM; at MMP-2 (setting [2]), 0.74 nM.

As to `CCCCOc1ccc(N2CCN(S(=O)(=O)C3(C(=O)NO)CCN(CCOC)CC3)CC2)cc1F` [Example 11, 4-[[4-(4-butoxy-3-fluorophenyl)-1-piperazinyl]sulfonyl]-N-hydroxy-1-(2-methoxyethyl)-4-piperidinecarboxamide, Dihydrochloride], the inhibitory constant (Ki) came to 2.67 nM on MMP-9 (setting [1]) and 0.71 nM at MMP-2 (setting [2]).

Consider `CCCCCc1ccc(C2CCN(S(=O)(=O)C3(C(=O)NO)CCN(CCOC)CC3)CC2)cc1` [Example 15, N-hydroxy-1-(2-methoxyethyl)-4-{[4-(4-pentylpheyl)piperidin-1-yl]sulfonyl}piperidine-4-carboxamide Hydrochloride], for which the Ki was 0.13 nM on MMP-9 (setting [1]) and 0.89 nM at MMP-2 (setting [2]).

For the compound `CC(C)CCOc1ccc(N2CCN(S(=O)(=O)C3(C(=O)NO)CCN(C4CC4)CC3)CC2)cc1` [Example 128], the inhibition constant Ki at MMP-9 (value not in parenthesis) is 1.92 nM; on MMP-2 (setting [3]) it was 0.785 nM.

As for `CCOc1ccc(N2CCN(S(=O)(=O)C3(C(=O)NO)CCOCC3)CC2)cc1` [Example 3, 4-{[4-(4-ethoxyphenyl)piperazinyl]sulfonyl}perhydro-2H-pyran-4-carbohydroxamic Acid], the values for the Ki on MMP-9 (setting [1]) and on MMP-2 (setting [2]) were 0.93 nM and 0.59 nM, respectively.

For the compound `CCCCOc1ccc(N2CCN(S(=O)(=O)C3(C(=O)NO)CCN(c4ncc(CC)cn4)CC3)CC2)cc1` [Example 155], the Ki was 9.86 nM on MMP-9 (value not in parenthesis) and 1.83 nM on MMP-2 (setting [3]).

On to `CCCCc1cnc(N2CCN(S(=O)(=O)C3(C(=O)NO)CCOCC3)CC2)cn1` [Example 1, 4-{[4-(5-butylpyrazin-2-yl)piperazin-1-yl]sulfonyl}-N-hydroxytetrahydro-2H-pyran-4-carboxamide Dihydrochloride], for which the Ki came out at 0.696 nM at MMP-9 (setting [1]) and 1.52 nM on MMP-2 (setting [2]).

Take `CCCCCc1ccc(N2CCN(S(=O)(=O)C3(C(=O)NO)CCN(CCOC)CC3)CC2)cc1F` [Example 13, 4-{[4-(3-fluoro-4-pentylphenyl)piperazin-1-yl]sulfonyl}-N-hydroxy-1-(2-methoxyethyl)piperidine-4-carboxamide Dihydrochloride]: the inhibition constant (Ki) was determined as 0.712 nM on MMP-9 (setting [1]) and 0.549 nM at MMP-2 (setting [2]).

`CCCCc1ccc(C2CCN(S(=O)(=O)C3(C(=O)NO)CCN(C4CC4)CC3)CC2)nc1` [Example 24, 4-{[4-(5-butylpyridin-2-yl)piperidin-1-yl]sulfonyl}-1-cyclopropyl-N-hydroxypiperidine-4-carboxamide Hydrochloride]: the inhibition constant Ki at MMP-9 (setting [1]) turned out to be 0.12 nM; at MMP-2 (setting [2]) it was 0.91 nM.

Regarding `COCCN1CCC(C(=O)NO)(S(=O)(=O)N2CCN(c3ccc(OCCCC(F)(F)F)cc3F)CC2)CC1` [Example 102], the Ki at MMP-9 (value not in parenthesis) worked out at 18.1 nM; on MMP-2 (setting [3]), 1.25 nM.

For `O=C(NO)C1(S(=O)(=O)N2CCN(c3ncccn3)CC2)CCOCC1` [Example 107], the inhibitory constant (Ki) was 153 nM on MMP-9 (value not in parenthesis) and 115 nM at MMP-2 (setting [3]).

For `O=C(NO)C1(S(=O)(=O)N2CCN(c3ncc(Br)cn3)CC2)CCOCC1` [Example 104], the Ki at MMP-9 (value not in parenthesis) came to 11.9 nM; at MMP-2 (setting [3]), 4.73 nM.

With `CCCCCc1cnc(N2CCN(S(=O)(=O)C3(C(=O)NO)CCOCC3)CC2)s1` [Example 56], the figures for the Ki at MMP-9 (value not in parenthesis) and on MMP-2 (setting [3]) were 3.49 nM and 1.02 nM, respectively.

Consider `CCCCOc1ccc(N2CCN(S(=O)(=O)C3(C(=O)NO)CCN(C(=O)c4cc5ccccc5o4)CC3)CC2)cc1` [Example 127], for which the values for the Ki on MMP-9 (value not in parenthesis) and on MMP-2 (setting [3]) were 24 nM and 6.02 nM, respectively.

On to `O=C1c2ccccc2C(=O)N1CCCCc1ccc(N2CCN(S(=O)(=O)C3(C(=O)NO)CCOCC3)CC2)nc1` [Example 132], for which the figures for the Ki at MMP-9 (value not in parenthesis) and at MMP-2 (setting [3]) were 28.3 nM and 1.2 nM, respectively.

In the case of `CCCCOc1ccc(N2CCN(S(=O)(=O)C3(C(=O)NO)CCN(c4nc5ccccc5o4)CC3)CC2)cc1` [Example 150], the Ki on MMP-9 (value not in parenthesis) is 31.4 nM; at MMP-2 (setting [3]), 4.25 nM.

For `CCCCOc1ccc(N2CCN(S(=O)(=O)C3(C(=O)NO)CCN(C(=O)NCCOC)CC3)CC2)cc1` [Example 118], the Ki was determined as 1.5 nM on MMP-9 (value not in parenthesis) and 0.75 nM at MMP-2 (setting [3]).

Regarding `CCCCCc1ccc(N2CCN(S(=O)(=O)C3(C(=O)NO)CCN(CC)CC3)CC2)cc1F` [Example 22, 1-ethyl-4-{[4-(3-fluoro-4-pentylphenyl)piperazin-1-yl]sulfonyl}-N-hydroxypiperidine-4-carboxamine Hydrochloride], the Ki at MMP-9 (setting [1]) worked out at 3.2 nM; on MMP-2 (setting [2]), 3.19 nM.

Take `Cc1ccc(N2CCN(S(=O)(=O)C3(C(=O)NO)CCOCC3)CC2)nc1` [Example 138]: the Ki came out at 5.09 nM on MMP-9 (value not in parenthesis) and 0.469 nM at MMP-2 (setting [3]).

On to `O=C(NO)C1(S(=O)(=O)N2CCN(c3ccc(COCC(F)(F)C(F)(F)C(F)(F)F)cc3)CC2)CCOCC1` [Example 69], for which the Ki turned out to be 202 nM on MMP-9 (value not in parenthesis) and 5.44 nM on MMP-2 (MMP-2 Ki, value not in parenthesis).

With `O=C(NO)C1(S(=O)(=O)N2CCC(c3cnc(OCC(F)(F)C(F)(F)F)cn3)CC2)CCOCC1` [Example 27], the Ki at MMP-9 (setting [1]) came out at 0.54 nM; on MMP-2 (setting [2]), 0.59 nM.
